Consider 4 molecules from patent publication US20070021348A1, “Novel treatment” (SmithKline Beecham Corp., & SmithKline Beecham, p.l.c., priority 1999, published 2007).

Starred links: 1 amine or outer side, 2 acyl side, 3 side chain; linkers in the order of their positions; H or OH if unused. Non-standard residues stand in square brackets, D forms with d. Residues, ends and D or L forms follow the SMILES beside them. *: point of attachment. Hexanoyl(5S-NH,4S-OH,6-Ph) = O=C(CC[C@H](O)[C@H](Cc1ccccc1)N[*:1])[*:2]; X2 = C[C@H](C[C@H](O)[C@H](Cc1ccccc1)N[*:1])C(=O)[*:2]; X3 = Nc1ccc2c(c1)Oc1ccccc1C21OC(=O)c2cc(C(=O)*)ccc21; X1 = CC(C)C[C@H](N[*:1])[C@@H](O)CCC(=O)[*:2]

As a reminder, the Kd is the concentration at which binding is half-saturated.

In experiment [1] the target is T1, Asp2-Fc enzyme (Homo sapiens, UniProt P56817).
T1 construct: A cDNA fragment encoding Asp 2, amino acids 1 to 460; made in house; host or cells: CHO E1A (derived from DG-44), secreted, purified on Protein A
The experiment can be described thus: Asp 2 fluorescence polarisation competition assay against labelled ligand (III). Format: binding. How it is done: Enzyme (at a fixed concentration of 25 nM), ligand (III) (at a fixed concentration of 2.5 nM) and test compound (10 uM down in twofold serial dilutions) were mixed in ×1 assay buffer (50 mM 50 mM sodium acetate, 20 mM sodium chloride, 5% glycerol, 0.1% CHAPS, pH 3.8) in a final assay volume of 10 ul and allowed to equilibrate for 3 hrs. The fluorescence polarisation was then read. The experiment was performed in duplicate.
(Polarisation of emitted light reports the rotation of a fluorescent probe.)

Experiment [2] deals with T1, Asp2-Fc enzyme. The experiment can be described thus: Fluorescence Resonance Energy Transfer (FRET) cleavage assay for Asp2. Format: biochemical. The settings on record: 0.5 uM fluorescent Swedish variant APP beta-site peptide substrate, 25 nM enzyme, pH 3.8. How it is done:
Preparation of Asp 2—Fc Fusion Protein (Asp 2(1-460)-Fc)
A cDNA fragment encoding Asp 2, amino acids 1 to 460 (EP855444 but with 130 Glu->Val), was subcloned to create a fusion protein with human immunoglobulin, residues 99-330 of IgGI, and cloned into the mammalian expression vector pCDN (Aiyar et al). The plasmid was linearized by digestion with Not 1 (15 ug DNA, 37′C, overnight), sterially precipitated and resuspended into 50 ul 1 X TE buffer (10 mM Tris, 1 mM EDTA, pH 7.5). […]
A peptide (X) based on the sequence of the Swedish variant APP beta-site sequence has been doubly labelled for use in a FRET assay. […] This would allow cleavage of the intervening peptide sequence by Asp2 to be monitored by energy transfer between the two fluorescent groups.
The fluorescent peptide substrate (0.5 uM) was incubated with Asp2-Fc enzyme, prepared as described above, in a buffer containing 50 mM sodium acetate, 20 mM sodium chloride, 5% glycerol, 0.1% CHAPS (3-[(3-Cholamidopropyl) dimethylammonio]-1-propane-sulphonate), pH 3.8). The assays were started by addition of enzyme (25 nM final concentration) and cleavage monitored on a fluorescent platereader with 485 nm excitation, 538 nm emission. […]
This assay was used to determine IC50 and Ki values for compounds of interest. […] Asp 2 Fluorescence Polarisation Assay.

Experiment [3] concerns the target T1, Asp2-Fc enzyme. Put plainly: Asp 2 fluorescence polarisation assay, Kd of labelled ligand. The settings on record: ligand 1-100 nM, enzyme from 100 nM down in twofold dilutions, pH 4.0, 15 min equilibration, anisotropy; read-out: Kd for the tight binding interaction. How it is done:
A competition assay has also been designed to identify compounds acting at the Asp2 active site. The hydroxyethylene inhibitor, (I), has been modified by addition of 5-, 6-rhodamine green to the free N-terminal amine of the compound to create labelled ligand (III). [drawing 4] The resulting compound was tested experimentally as follows to determine the Kd with Asp2-Fc enzyme, prepared as above.
A three dimensional analysis varying enzyme and compound (III) was performed. Ligand concentration range was 1, 3, 10, 30 and 100 nM. Enzyme concentration range was from 100 nM down in serial twofold dilutions (11 dilutions+no enzyme control). Ligand of appropriate concentration was prepared in 5% DMSO. The enzyme solutions were prepared in 2 times (×2) assay buffer (where ×1=50 mM sodium acetate, 20 mM sodium chloride, 5% glycerol, 0.1% CHAPS, pH 4.0). 5 ul of the enzyme solution (of varying concentration) was mixed with 5 ul of the ligand (of varying concentration) in a low volume 384 microtitre plate. The samples were allowed to equilibrate for 15 min before the fluorescence polarisation was read on an LJL Acquest platereader.
The Anisotropy values were plotted and the Kd for the tight binding interaction obtained.

`CC(C)C[C@H](NC(=O)[C@H](C)NC(=O)[C@@H](NC(=O)[C@@H](N)CCC(=O)O)C(C)C)[C@@H](O)CCC(=O)N[C@@H](C)C(=O)N[C@@H](CCC(=O)O)C(=O)N[C@@H](Cc1ccccc1)C(=O)O` [Compound (IV)] (H-EVA[X1]AEF-OH): the Ki at Asp2-Fc enzyme [1] (25 nM enzyme, 2.5 nM ligand (III), pH 3.8, 3 hrs equilibration, duplicate) was 67.5 nM. The “displacement of the fluorescent ligand (III)” value at Asp2-Fc enzyme [1] (at the highest concentrations of test compound (10 uM down in twofold serial dilutions)) is given as “Complete displacement”.

`CC(C)[C@H](NC(=O)[C@@H](N)CCC(=O)O)C(=O)N[C@@H](CC(N)=O)C(=O)N[C@@H](Cc1ccccc1)[C@@H](O)CCC(=O)N[C@@H](C)C(=O)N[C@@H](CCC(=O)O)C(=O)N[C@@H](Cc1ccccc1)C(=O)O` [(I)] (H-EVN[Hexanoyl(5S-NH,4S-OH,6-Ph)]AEF-OH) returned a Ki at Asp2-Fc enzyme [2] of 7.7 nM.

As to `CC(C)[C@H](NC(=O)[C@H](CCC(=O)O)NC(=O)c1ccc2c(c1)C(=O)OC21c2ccccc2Oc2cc(N)ccc21)C(=O)N[C@@H](CC(N)=O)C(=O)N[C@@H](Cc1ccccc1)[C@@H](O)CCC(=O)N[C@@H](C)C(=O)N[C@@H](CCC(=O)O)C(=O)N[C@@H](Cc1ccccc1)C(=O)O` (stereo partly drawn) [(III)] (X3-EVN[Hexanoyl(5S-NH,4S-OH,6-Ph)]AEF-OH), the Kd on Asp2-Fc enzyme [3] turned out to be 1.22 nM.

As to `CC(C)[C@H](NC(=O)[C@@H](N)CCC(=O)O)C(=O)N[C@@H](CC(N)=O)C(=O)N[C@@H](Cc1ccccc1)[C@@H](O)C[C@@H](C)C(=O)N[C@@H](C)C(=O)N[C@@H](CCC(=O)O)C(=O)N[C@@H](Cc1ccccc1)C(=O)O` [(II)] (H-EVN[X2]AEF-OH), the Ki at Asp2-Fc enzyme [2] was 7.3 nM.
